{
  "source": "paper PMC6768323",
  "about": "“Adverse Maternal, Fetal, and Postnatal Effects of Hexafluoropropylene Oxide Dimer Acid (GenX) from Oral Gestational Exposure in Sprague-Dawley Rats” (Environmental Health Perspectives, 2019)",
  "biological_target": "T1, human GR (Homo sapiens, UniProt P04150)",
  "T1 construct": "expressed in transfected cells; host or cells: CV-1 cells (ATCC CCL-70), adenoviral transduction",
  "T1 sequence (P04150 1-777)": "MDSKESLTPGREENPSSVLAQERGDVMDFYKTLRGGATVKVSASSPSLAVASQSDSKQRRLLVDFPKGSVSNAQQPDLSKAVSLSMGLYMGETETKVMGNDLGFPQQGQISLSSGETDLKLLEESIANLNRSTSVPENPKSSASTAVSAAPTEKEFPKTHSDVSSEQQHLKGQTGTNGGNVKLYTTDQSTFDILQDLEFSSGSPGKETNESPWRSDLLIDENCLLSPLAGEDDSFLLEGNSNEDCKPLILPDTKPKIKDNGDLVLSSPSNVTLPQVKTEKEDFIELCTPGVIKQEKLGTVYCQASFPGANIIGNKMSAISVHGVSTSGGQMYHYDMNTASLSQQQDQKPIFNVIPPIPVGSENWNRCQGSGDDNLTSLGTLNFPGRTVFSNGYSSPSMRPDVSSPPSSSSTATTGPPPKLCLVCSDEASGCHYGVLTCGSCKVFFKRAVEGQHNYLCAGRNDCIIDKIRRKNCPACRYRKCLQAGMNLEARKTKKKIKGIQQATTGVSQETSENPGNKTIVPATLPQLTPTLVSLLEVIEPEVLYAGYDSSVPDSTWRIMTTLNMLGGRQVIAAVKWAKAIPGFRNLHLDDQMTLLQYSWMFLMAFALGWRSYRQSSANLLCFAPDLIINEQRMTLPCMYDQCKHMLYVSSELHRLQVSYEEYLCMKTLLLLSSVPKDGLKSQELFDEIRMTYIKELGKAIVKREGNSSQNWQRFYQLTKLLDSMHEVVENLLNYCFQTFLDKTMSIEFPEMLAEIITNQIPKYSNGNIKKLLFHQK",
  "assay": "GR transcriptional activation, CV-1 cells",
  "assay_type": "cell-based",
  "protocol": "HFPO-DA was assessed for agonism and antagonism of transcriptional activation for estrogen (ER), androgen (AR), and glucocorticoid receptors (GR). Method details for in vitro transactivation assays for ER ([Wilson et al. 2004a]), AR ([Hartig et al. 2002], [2007]), and GR ([Conley et al. 2017]; [Medlock Kakaley et al. 2018]) have been previously reported. Briefly, for ER activity we utilized the stably transfected T47D-KBluc cell line [publicly available via American Type Culture Collection (ATCC); CRL-2865] according to protocols provided by ATCC with the modification of Dulbecco’s Modified Eagle Media (DMEM) as the cell culture media instead of Roswell Park Memorial Institute (RPMI) media. […] All assays were run in 96-well plates and luminescence was detected using a BMG Fluostar Omega luminometer (BMG Labtech) following 24-h exposure. […] Cellular cytotoxicity across the dosing range was determined for CV-1 cells utilizing the 3-(4,5-dimethylthiazol-2-yl)-2,5-diphenyltetrazolium bromide (MTT) dye ([Mosmann 1983]). HFPO-DA was analyzed using n=2–3 biological replicate assay plates (i.e., unique cell passages) with four technical replicates per treatment per plate. […]",
  "data": [
    {"smiles": "O=C(O)C(F)(OC(F)(F)C(F)(F)C(F)(F)F)C(F)(F)F", "note": "(centres unmarked) [HFPO-DA, Hexafluoropropylene oxide dimer acid]", "values": [
      {"measurement": "glucocorticoid receptor agonism", "setting": "100 pM to 100 μM", "value": "no androgen or glucocorticoid receptor agonism"},
      {"measurement": "glucocorticoid receptor antagonism, reduction in luciferase expression", "setting": "100 μM, versus 1 nM Dex", "value": "28±3", "unit": "%"}
    ]}
  ]
}
